Values quoted from earlier work in patent US20250205347A1, “METHODS FOR TREATING INFLAMMATORY CONDITIONS OF THE EYE WITH AN IGF-1R LIGAND CONJUGATED TO A DISEASE-MODIFYING AGENT” (Lirum Therapeutics, Inc., priority 2022, published 2025).

Legend:
IGFBPs = conditions: known in the art (U.S. Pat. No. 4,876,242; Francis et al. 1992)
IGF-1R = IGF-1R (Homo sapiens, UniProt P08069); conditions: relative to IGF-1 / IGF-2; Hakuno et al. 2018
Chain of IGF-1R (P08069 31-736 limits assumed, species assumed): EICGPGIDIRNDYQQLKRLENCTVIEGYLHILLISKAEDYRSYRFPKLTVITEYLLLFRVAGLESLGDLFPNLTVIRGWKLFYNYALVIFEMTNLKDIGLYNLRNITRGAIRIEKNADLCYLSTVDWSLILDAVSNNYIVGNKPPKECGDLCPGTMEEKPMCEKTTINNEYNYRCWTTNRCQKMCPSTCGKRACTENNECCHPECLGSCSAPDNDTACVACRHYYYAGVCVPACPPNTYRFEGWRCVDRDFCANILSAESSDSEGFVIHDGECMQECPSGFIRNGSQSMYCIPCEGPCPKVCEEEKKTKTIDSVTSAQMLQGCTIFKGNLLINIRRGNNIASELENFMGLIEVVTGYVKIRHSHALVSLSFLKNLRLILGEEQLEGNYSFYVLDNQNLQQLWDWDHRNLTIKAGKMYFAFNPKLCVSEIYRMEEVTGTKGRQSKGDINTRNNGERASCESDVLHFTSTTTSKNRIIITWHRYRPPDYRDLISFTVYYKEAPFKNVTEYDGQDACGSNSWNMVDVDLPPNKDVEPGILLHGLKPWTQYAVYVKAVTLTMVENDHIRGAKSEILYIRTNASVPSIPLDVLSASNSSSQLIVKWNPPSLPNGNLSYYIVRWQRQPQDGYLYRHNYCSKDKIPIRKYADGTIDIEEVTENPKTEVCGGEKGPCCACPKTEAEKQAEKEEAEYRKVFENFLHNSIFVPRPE
Chain of IGF-1R (P08069 741-1367 partner limits assumed, species assumed): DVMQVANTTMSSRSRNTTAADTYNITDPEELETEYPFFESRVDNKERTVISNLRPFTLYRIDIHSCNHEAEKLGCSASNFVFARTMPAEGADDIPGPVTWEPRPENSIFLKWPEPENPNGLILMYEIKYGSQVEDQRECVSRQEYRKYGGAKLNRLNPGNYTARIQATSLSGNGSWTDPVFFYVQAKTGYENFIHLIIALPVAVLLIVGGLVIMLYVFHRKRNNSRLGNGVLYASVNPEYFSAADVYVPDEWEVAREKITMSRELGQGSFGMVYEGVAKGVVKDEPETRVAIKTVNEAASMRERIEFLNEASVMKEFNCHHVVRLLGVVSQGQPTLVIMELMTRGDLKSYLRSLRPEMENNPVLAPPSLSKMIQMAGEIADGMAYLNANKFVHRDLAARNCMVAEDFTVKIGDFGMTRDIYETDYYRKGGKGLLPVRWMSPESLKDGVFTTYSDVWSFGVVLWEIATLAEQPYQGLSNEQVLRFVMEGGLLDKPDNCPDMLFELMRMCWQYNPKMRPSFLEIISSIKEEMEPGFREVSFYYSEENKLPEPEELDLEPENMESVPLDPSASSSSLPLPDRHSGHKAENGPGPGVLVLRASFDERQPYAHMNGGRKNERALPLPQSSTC

Molecule	binding affinity for IGFBPs as compared to wildtype IGF-1 (IGFBPs)	affinity of IGF-1R for the ligand, fold lower (IGF-1R)
des(1-3) IGF-1: IGF-1 variant (SEQ ID NO:7) lacking the first three amino acids of human IGF-1	reduced binding affinity for IGFBPs	
insulin: native IGF-1R ligand; mature human insulin, chain A SEQ ID NO:10 and chain B SEQ ID NO:11		50-to 100 fold

Second part, led by results:

binding affinity for IGFBPs as compared to wildtype IGF-1 (IGFBPs)	Molecule	affinity of IGF-1R for the ligand, fold lower (IGF-1R)
reduced binding affinity for IGFBPs	R3-IGF-1: IGF-1 variant (SEQ ID NO:6): glutamic acid in position 3 of human IGF-1 substituted by arginine	
reduced binding affinity for IGFBPs	IGF132: IGF-1 variant (SEQ ID NO:4): first 17 amino acids of insulin B chain replace first 16 amino acids of human IGF-1 (protein) FVNQHLCGSHLVEALYLVCGDRGFYFNKPTGYGSSSRRAPQTGIVDECCFRSCDLRRLEMYCAPLKPAKSA	
